“Also recorded” adds a separate entry of the source. Like-named read-outs stand apart in the source and are kept apart here.
What was measured:
[1] = target: T1, OATP1B3 (Homo sapiens, UniProt Q9NPD5); experiment: cell-based
T1 sequence (Q9NPD5 1-702): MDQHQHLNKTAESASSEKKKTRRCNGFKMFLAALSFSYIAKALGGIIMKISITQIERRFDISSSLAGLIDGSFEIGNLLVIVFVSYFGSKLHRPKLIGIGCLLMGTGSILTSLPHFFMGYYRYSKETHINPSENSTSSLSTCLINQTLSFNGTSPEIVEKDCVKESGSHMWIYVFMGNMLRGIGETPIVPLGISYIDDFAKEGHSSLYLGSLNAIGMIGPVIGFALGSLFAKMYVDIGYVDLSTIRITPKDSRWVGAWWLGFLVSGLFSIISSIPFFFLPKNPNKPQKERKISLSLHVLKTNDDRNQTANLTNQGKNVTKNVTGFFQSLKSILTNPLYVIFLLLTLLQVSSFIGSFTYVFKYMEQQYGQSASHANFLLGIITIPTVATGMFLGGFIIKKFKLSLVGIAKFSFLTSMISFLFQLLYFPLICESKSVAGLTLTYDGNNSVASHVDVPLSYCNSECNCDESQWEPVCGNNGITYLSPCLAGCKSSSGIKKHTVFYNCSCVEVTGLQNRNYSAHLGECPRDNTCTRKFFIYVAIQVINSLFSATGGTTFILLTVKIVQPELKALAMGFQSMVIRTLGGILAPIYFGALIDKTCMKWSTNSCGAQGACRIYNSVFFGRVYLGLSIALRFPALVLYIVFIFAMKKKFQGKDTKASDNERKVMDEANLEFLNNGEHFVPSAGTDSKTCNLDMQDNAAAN
Protocol: (§1) The OATP1B1, OATP1B3, and mock cells were cultured in the DMEM medium containing 10% fetal bovine serum, penicillin–streptomycin solution (100 U/mL and 0.1 mg/ml), and 0.5 mg/ml geneticin at 37°C in the presence of 5% CO2. The cells were seeded in a 24-well plate at a density of 4×10^5 cells/well and grown for 80–90% confluence. […] After washing the cells three times with transporter buffer at 4°C, the cells were lysed with liquid nitrogen. The lysates were precipitated with methanol and centrifuged at 12,000 rpm at 4°C for 5 min. The supernatant was analyzed by LC-MS/MS. Protein concentration was determined using the Pierce® BCA Protein Assay Kit. All experiments were performed in triplicate.
(§2) Phoenix WinNonlin® 7.1 (Pharsight Corporation, Mountain View, CA, United States) was used to calculate the pharmacokinetic parameters by the noncompartmental method. IC50 values were obtained by a computer-generated nonlinear least squares fit using GraphPad Prism 8.1 (GraphPad Software, San Diego, CA, United States). Statistical analysis was performed using SPSS ver. 22.0 (IBM, Chicago, IL, United States). The results are presented as mean ± S.D., unless otherwise stated. After testing for the homogeneity of variance, statistical analysis was performed with a one-way ANOVA followed by the LSD post hoc test or unpaired Student’s t-test. A probability (p) of less than 0.05, 0.01, and 0.001 was considered to be statistically significant, highly significant, and extremely significant, respectively.

[2] = target: T2, OATP1B1 (Homo sapiens, UniProt Q9Y6L6); experiment: cell-based
T2 sequence (Q9Y6L6 1-691): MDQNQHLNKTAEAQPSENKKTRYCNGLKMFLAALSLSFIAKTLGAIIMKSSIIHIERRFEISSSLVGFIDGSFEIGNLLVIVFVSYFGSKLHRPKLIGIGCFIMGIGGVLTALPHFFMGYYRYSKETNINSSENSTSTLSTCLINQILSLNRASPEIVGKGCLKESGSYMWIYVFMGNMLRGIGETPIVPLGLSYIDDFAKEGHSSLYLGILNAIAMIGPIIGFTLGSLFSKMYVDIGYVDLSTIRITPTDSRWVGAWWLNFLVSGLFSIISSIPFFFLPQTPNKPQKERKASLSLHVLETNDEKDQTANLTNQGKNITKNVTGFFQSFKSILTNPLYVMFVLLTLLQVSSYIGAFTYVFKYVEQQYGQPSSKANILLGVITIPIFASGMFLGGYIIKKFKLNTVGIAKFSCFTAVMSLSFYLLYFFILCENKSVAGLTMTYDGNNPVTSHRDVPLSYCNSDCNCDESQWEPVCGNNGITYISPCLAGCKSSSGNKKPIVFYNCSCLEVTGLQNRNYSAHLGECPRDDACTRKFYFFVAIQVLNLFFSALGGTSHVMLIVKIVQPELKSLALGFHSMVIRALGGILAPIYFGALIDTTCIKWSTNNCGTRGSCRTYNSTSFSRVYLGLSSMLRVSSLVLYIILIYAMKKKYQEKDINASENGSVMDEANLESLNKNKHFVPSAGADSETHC
Protocol: as §1, §2

[3] = cited from earlier work; for I1, peak plasma concentration at steady state: ref Itkonen et al. (2015)
[4] = system: OATP1B3; parameters: method as in Elsby et al., 2016; conditions: ref Elsby et al., 2016; cited from earlier work
[5] = in 5 days after p.o. administration, ref Sanofi-Aventis, 2011

| Compound | IC50 [1] | Inhibition of OATP1B3-mediated RSV transport ([1]; 1 μM RSV, CPC 0.05–50 μM) | IC50 [2] | I1, peak plasma concentration at steady state ([3]; 75 mg CP) | I1, peak plasma concentration at steady state ([3]; 300 mg CP) | Absorbed CP converted into inactive carboxylic acid metabolites (CPC) by CES1 in the liver ([3]; at least, ref Jiang et al., 2015) | Excreted as inactive metabolites via feces [3, 5] | Excreted as inactive metabolites via urine [3, 5] | CP undergoing two-step oxidization by CYP enzymes to active metabolite ([3]; ref Jiang et al., 2015) | Elimination half-life ([3]; ref Sanofi-Aventis, 2011) | Individual contribution of OATP1B3 to hepatic uptake [4] |
| --- | --- | --- | --- | --- | --- | --- | --- | --- | --- | --- | --- |
| COC(=O)[C@H](c1ccccc1Cl)N1CCc2sccc2C1 [CP, clopidogrel] | > 50 µM | did not inhibit; also recorded: did not affect | 27.4 µM | 0.0010 [Itkonen et al. (2015)] μM | 0.0089 [Itkonen et al. (2015)] μM | 85–90% | ~46% | ~50% | About 2% | 6 h | – |
| CC(C)c1nc(N(C)S(C)(=O)=O)nc(-c2ccc(F)cc2)c1/C=C/[C@@H](O)C[C@@H](O)CC(=O)O [RSV, rosuvastatin] | – | – | – | – | – | – | – | – | – | – | 0.11 |
